One assay deals with T1, KRAS-G12D and SOS1 (Homo sapiens, UniProt P01116, G12D).
T1 construct: purchased
The assay is described as follows: Inhibition of KRAS-G12D/SOS1 binding (Cisbio binding kit, 665/615 ratio), Effect Embodiment A. Conditions: read-out: GTP-KRAS-G12D:SOS1 IC50. The procedure, abridged: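 Compounds underwent 3-fold dilution from their storage solutions (11 points), were transferred to assay wells in duplicate with DMSO held at 1% final, and were briefly centrifuged.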

A further assay concerns the target T2, KRAS_G12D and cRAF (Homo sapiens, UniProt P01116, G12D).
T2 construct: purchased
As to the kind of experiment: Inhibition of KRAS_G12D/cRAF binding (Cisbio binding kit, 665/615 ratio), Effect Embodiment B. Conditions: read-out: GTP-KRAS-G12D:CRAF IC50. On the procedure:
(§1) Similarly, the first dilution point of the compound to be tested was its storage solution, and the solution was 3-fold diluted, with 11+0 points of dilution. Echo was used to transfer 0.2 μL gradient diluted solution of the compounds into a 384-well plate, with 2 duplicated wells for each compound, and the final concentration of DMSO was 1%. The solution was centrifuged for 1 min at 1000 rpm/min.
(§2) IC50 of the compounds was fitted by Graphpad Prism 8 nonlinear regression equation: […]
(§3) The IC50 (half inhibitory concentration) of the compound was obtained by using the following nonlinear fitting formula: […]

For the next assay, the target named is T3, KRAS_WT and SOS1 (Homo sapiens, UniProt P01116).
T3 construct: purchased
T3 sequence (P01116 1-188 isoform P01116-2): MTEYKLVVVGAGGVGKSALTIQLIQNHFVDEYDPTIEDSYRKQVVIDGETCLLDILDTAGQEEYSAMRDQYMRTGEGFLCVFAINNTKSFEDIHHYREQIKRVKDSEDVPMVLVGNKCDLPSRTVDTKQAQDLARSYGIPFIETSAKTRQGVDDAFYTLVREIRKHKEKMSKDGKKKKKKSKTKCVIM
As to the kind of experiment: Inhibition of KRAS_WT/SOS1 binding (Cisbio binding kit, 665/615 ratio), Effect Embodiment C. Conditions: read-out: GTP-KRAS-WT:SOS1 IC50. The protocol: The inhibitory ability of small molecule compounds on the binding activity of KRAS_WT and SOS1 was examined by a drug screening system based on the combination of KRAS_WT and SOS1.
as §1, §2, §3

pIC50: −log10 of the molar value. Where a name gives a salt, the structure may show the parent alone.

T2 sequence (P01116 1-188 isoform P01116-2 G12D): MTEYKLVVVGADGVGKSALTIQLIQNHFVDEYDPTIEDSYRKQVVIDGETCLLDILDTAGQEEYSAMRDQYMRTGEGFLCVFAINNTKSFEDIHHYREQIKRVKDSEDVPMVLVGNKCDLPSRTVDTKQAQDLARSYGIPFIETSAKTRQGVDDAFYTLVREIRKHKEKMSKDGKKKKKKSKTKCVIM
T1 sequence (P01116 1-188 isoform P01116-2 G12D): as above

As for `CC(COc1nc(N2CC3CCC(C2)N3)c2cc(Cl)c(-c3cc(O)cc4ccccc34)c(F)c2n1)CN1C2CCC1COC2` (single isomer, unassigned) [Compound 178a, 4-((7R or 7S)-2-((2R or 2S)-3-(3-oxa-8-azabicyclo[3.2.1]octan-8-yl)-2-methylpropoxy)-4-((1R,5S)-3,8-diazabicyclo[3.2.1]octan-3-yl)-6-chloro-8-fluoroquinazolin-7-yl)naphthalen-2-ol diformate], the pIC50 – broadly, the IC50 on a negative log10 scale, so that one unit is a factor of ten – at KRAS-G12D and SOS1 was 7.67; on KRAS_G12D and cRAF, 7.74; on KRAS_WT and SOS1 it was 6.08.
For `Oc1cc(-c2c(Cl)cc3c(N4CC5CCC(C4)N5)nc(OCCCN4C5CCC4COC5)nc3c2F)c2c(F)c(F)ccc2c1` (single isomer, unassigned) [Compound 248, (4S or 4R)-4-(2-(3-(3-oxa-8-azabicyclo[3.2.1]octan-8-yl)propoxy)-4-(1R,5S)-3,8-diazabicyclo[3.2.1]octan-3-yl)-6-chloro-8-fluoroquinazolin-7-yl)-5,6-difluronaphththalen-2-ol formate], the negative-log IC50 (pIC50) at KRAS-G12D and SOS1 is 7.51; on KRAS_G12D and cRAF, 7.17; at KRAS_WT and SOS1, 7.01.
The like results for `Oc1cc(-c2c(Cl)cc3c(N4CC5CCC(C4)N5)nc(OCCN4CCCC4)nc3c2F)c2ccccc2c1` (single isomer, unassigned) [Compound 116, 4-((S or R)-4-((1R,5S)-3,8-diazabicyclo[3.2.1]octan-3-yl)-6-chloro-8-fluoro-2-(2-(pyrrolidin-1-yl)ethoxy)quinazolin-7-yl)naphthalen-2-ol dihydrochloride] were, in that order, 7.18, 6.72 and 5.47.
Regarding `CC(F)(COc1nc(N2CC3CCC(C2)N3)c2cc(Cl)c(-c3cc(O)cc4ccccc34)c(F)c2n1)CN1C2CCC1COC2` (single isomer, unassigned) [Compound 208b, (4S or 4R)-4-(2-((2(S or R)-3-(3-oxa-8-azabicyclo[3.2.1]octan-8-yl)-2-fluoro-2-methylpropoxy)-4-((1R,5S)-3,8-diazabicyclo[3.2.1]octan-3-yl)-6-chloro-8-fluoroquinazolin-7-yl)naphthalen-2-ol formate], the pIC50 on KRAS-G12D and SOS1 is 7.01; on KRAS_G12D and cRAF, 6.57.
As to `Oc1cc(-c2c(Cl)cc3c(N4CC5CCC(C4)N5)nc(OCC(CN4C5CCC4COC5)C(F)(F)F)nc3c2F)c2ccccc2c1` (single isomer, unassigned) [Compound 218a, 4-((7S or 7R)-2-((2S or 2R)-2-((3-oxa-8-azabicyclo[3.2.1]octan-8-yl)methyl)-3,3,3-trifluoropropoxy)-4-((1R,5S)-3,8-diazabicyclo[3.2.1]octan-3-yl)-6-chloro-8-fluoroquinazolin-7-yl)naphthalen-2-ol diformate], the pIC50 at KRAS-G12D and SOS1 was 7.04; at KRAS_G12D and cRAF, 6.24.
Regarding `C[C@@H](COc1nc(N2CC3CCC(C2)N3)c2cc(Cl)c(-c3cc(B(O)O)cc4ccccc34)c(F)c2n1)CN1C2CCC1COC2` (single isomer, unassigned) [Compound 256, (4-((7S or 7R)-2-((2R)-3-(3-oxa-8-azabicyclo[3.2.1]octan-8-yl)-2-methylpropoxy)-4-((1R,5S)-3,8-diazabicyclo[3.2.1]octan-3-yl)-6-chloro-8-fluoroquinazolin-7-yl)naphthalen-2-yl)boronic acid ditrifluoroacetate], the negative-log IC50 (pIC50) on KRAS-G12D and SOS1 was 7.04; on KRAS_G12D and cRAF it was 6.45.
For `CN(C)C1CN(c2nc(N3C[C@H]4CC[C@@H](C3)N4)c3cnc(-c4cc(O)cc5ccccc45)c(F)c3n2)C1` [Compound 78, 4-(4-((1R,5S)-3,8-diazabicyclo[3.2.1]octan-3-yl)-2-(3-(dimethylamino)azetidin-1-yl)-8-fluoropyridine[4,3-d]pyrimidin-7-yl)naphthalen-2-ol], the pIC50 was 7.35 at KRAS-G12D and SOS1; 6.07 at KRAS_WT and SOS1.
In the same order, the values of `CN(C)C1CN(c2nc(N3CCC4NCCC43)c3cc(Cl)c(-c4cc(O)cc5ccccc45)c(F)c3n2)C1` (single isomer, unassigned) [Compound 36, 4-((S or R)-6-chloro-2-(3-(dimethylamino)azetidin-1-yl)-8-fluoro-4-((3aS,6aS or 3aR,6aR)-hexahydropyrrolo [3,2-b]pyrrole-1(2H)-yl)quinazolin-7-yl)naphthalen-2-ol] are 6.56 and under 4.00.
For `Oc1cc(-c2c(Cl)cc3c(N4CC5CCC(C4)N5)nc(OCC(CN4C5CCC4COC5)C4CC4)nc3c2F)c2ccccc2c1` (single isomer, unassigned) [Compound 209b, 4-((7S or 7R))-2-(2(S or R))-3-(3-oxa-8-azabicyclo[3.2.1]octan-8-yl)-2-cyclopropylpropoxy)-4-((1R,5S)-3,8-diazabicyclo[3.2.1]octan-3-yl)-6-chloro-8-fluoroquinazolin-7-yl)naphthalen-2-ol diformate], the negative logarithm of the IC50 (pIC50) on KRAS-G12D and SOS1 is 7.04; on KRAS_G12D and cRAF it was 6.53.
For the compound `CC[C@@H]1CN(C[C@@H](C)COc2nc(N3CC4CCC(C3)N4)c3cc(Cl)c(-c4cc(O)cc5ccccc45)c(F)c3n2)C[C@H](CC)O1` (single isomer, unassigned) [Compound 219, 4-((S or R)-4-((1R,5S)-3,8-diazabicyclo[3.2.1]octan-3-yl)-6-chloro-2-((R)-3-((2R,6S)-2,6-diethylmorpholinyl)-2-methylpropoxy)-8-fluoroquinazolin-7-yl)naphthalen-2-ol formate], the pIC50 at KRAS-G12D and SOS1 is 7.76; on KRAS_G12D and cRAF, 7.67.
Take `C[C@@H](COc1nc(N2CC3CCC(C2)N3)c2cc(Cl)c(-c3cc(O)cc4ccccc34)c(F)c2n1)CN1C[C@@H](C)OC[C@@H]1C` (single isomer, unassigned) [Compound 226, 4-((S or R)-4-((1R,5S)-3,8-diazabicyclo[3.2.1]octan-3-yl)-6-chloro-2-((R)-3-((2R,5S)-2,5-dimethylmorpholinyl)-2-methylpropoxy)-8-fluoroquinazolin-7-yl)naphthalenol formate]: the pIC50 on KRAS-G12D and SOS1 is 7.17; on KRAS_G12D and cRAF, 6.81.
As for `CN(C)C1CN(c2nc(N3C4CC5CC3CC(C4)N5)c3cc(Cl)c(-c4cc(O)cc5ccccc45)c(F)c3n2)C1` (single isomer, unassigned) [Compound 34, 4-((S or R)-4-(2,6-diazaadamantan-2-yl)-6-chloro-2-(3-(dimethylamino)azetidin-1-yl)-8-fluoroquinazolin-7-yl)naphthalen-2-ol], the pIC50 on KRAS-G12D and SOS1 was 6.73; at KRAS_WT and SOS1, 6.55.
In the case of `CO[C@H](COc1nc(N2CC3CCC(C2)N3)c2cc(Cl)c(-c3cc(O)cc4ccccc34)c(F)c2n1)CN1C2CCC1COC2` (single isomer, unassigned) [Compound 184, (4R or S)-4-(2-((2S)-3-(3-oxa-8-azabicyclo[3.2.1]octan-8-yl)-2-methoxypropoxy)-4-((1R,5S)-3,8-diazabicyclo[3.2.1]octan-3-yl)-6-chloro-8-fluoroquinazolin-7-yl)naphthalen-2-ol diformate], the pIC50 is 6.95 at KRAS-G12D and SOS1; 6.34 at KRAS_G12D and cRAF.
On to `CC(F)(COc1nc(N2CC3CCC(C2)N3)c2cc(Cl)c(-c3cc(O)cc4ccccc34)c(F)c2n1)CN1C2CCC1COC2` (single isomer, unassigned) [Compound 208a, ((4S or 4R)-4-(2-((2(R or S)-3-(3-oxa-8-azabicyclo[3.2.1]octan-8-yl)-2-fluoro-2-methylpropoxy)-4-((1R,5S)-3,8-diazabicyclo[3.2.1]octan-3-yl)-6-chloro-8-fluoroquinazolin-7-yl)naphthalen-2-ol formate], for which the pIC50 was 7.37 on KRAS-G12D and SOS1; 6.96 at KRAS_G12D and cRAF.
Regarding `CN(C)C1CN(c2nc(N3CCNCC3)c3cc(Cl)c(-c4cc(O)cc5ccccc45)c(F)c3n2)C1` (single isomer, unassigned) [Comparative embodiment a, reference compound], the negative logarithm of the IC50 (pIC50) on KRAS-G12D and SOS1 is 5.87; on KRAS_G12D and cRAF, 5.14.
On to `Nc1cc(-c2c(Cl)cc3c(N4C[C@H]5CC[C@@H](C4)N5)nc(OCCCN4C5CCC4COC5)nc3c2F)c2ccccc2c1` (single isomer, unassigned) [Compound 192b, 4-((7S or 7R)-2-(3-(3-oxa-8-azabicyclo[3.2.1]octan-8-yl)propoxy)-4-((1R,5S)-3,8-diazabicyclo[3.2.1]octan-3-yl)-6-chloro-8-fluoroquinazolin-7-yl)naphthalen-2-amine tritrifluoroacetate], for which the negative-log IC50 (pIC50) is 6.73 at KRAS-G12D and SOS1; 6.37 on KRAS_G12D and cRAF.
Regarding `C[C@@H](COc1nc(N2CC3CCC(C2)N3)c2cc(Cl)c(-c3cc(O)cc4ccccc34)c(F)c2n1)CN1C[C@H](C)O[C@@H](C)C1` (single isomer, unassigned) [Compound 220, 4-((S or R)-4-((1R,5S)-3,8-diazabicyclo[3.2.1]octan-3-yl)-6-chloro-2-((R)-3-((2S,6S)-2,6-dimethylmorpholinyl)-2-methylpropoxy)-8-fluoroquinazolin-7-yl)naphthalen-2-ol formate], the negative logarithm of the IC50 (pIC50) at KRAS-G12D and SOS1 was 7.71; on KRAS_G12D and cRAF it was 7.53.
With `CN(C)C1CN(c2nc(N3CC4CNCC4C3)c3cc(Cl)c(-c4cc(O)cc5ccccc45)c(F)c3n2)C1` (single isomer, unassigned) [Compound 14c, (R or S)-4-(6-chloro-2-(3-(dimethylamino)azetidin-1-yl)-8-fluoro-4-((3aR,6aR or 3aS,6aS)-hexahydro-pyrrolo[3,4-c]pyrrol-2(1H)-yl)quinazolin-7-yl)naphthalen-2-ol], the pIC50 at KRAS-G12D and SOS1 is 5.02.
